From patent US9856279B2 (AGIOS PHARMACEUTICALS, INC, priority 2011, dated 2018)

What was measured:
IDH1 R132H = IDH1 R132H (Homo sapiens, UniProt O75874, R132H); experiment: Assay for IDH1 R132H inhibitors (NADPH/aKG, resazurin detection); type: biochemical; settings: enzyme assay of Example 12; read-out: IDH1R132H IC50
In short: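 Read-out is resorufin fluorescence (Ex544/Em590) 5 min after adding a 30 μM resazurin detection mix. Before that, mutant enzyme (0.2 μg/ml in its mix) ran 50 min at room temperature with compound, 8 uM NADPH and 2 mM aKG (mix levels) in Tris pH 7.5 with NaCl, MgCl2, BSA.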

HT1080 cells = experiment: Cellular assay for IDH1m inhibitors: inhibition of 2-HG production (LC-MS, 48 hours) in HT1080 cells; type: cell-based; settings: Homo sapiens, HT-1080; inhibition of 2-HG production, HT1080 cells; read-out: HT1080 IC50
In short: (§1)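 HT1080 or U87MG cells were seeded at 5000/well in DMEM with 10% FBS, incubated overnight, then treated with compounds (0.2% DMSO final) for 48 h. Medium 2-HG was quantified by LC-MS, and IC50 was taken as the concentration reducing 2-HG by 50% versus DMSO control.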

U87MG cells = experiment: Cellular assay for IDH1m inhibitors: inhibition of 2-HG production (LC-MS, 48 hours) in U87MG cells; type: cell-based; settings: Homo sapiens, U-87 MG, inhibition of 2-HG production, U87R132H cells; read-out: U87R132H IC50
In short: as §1

Chain of IDH1 R132H (O75874 whole entry R132H): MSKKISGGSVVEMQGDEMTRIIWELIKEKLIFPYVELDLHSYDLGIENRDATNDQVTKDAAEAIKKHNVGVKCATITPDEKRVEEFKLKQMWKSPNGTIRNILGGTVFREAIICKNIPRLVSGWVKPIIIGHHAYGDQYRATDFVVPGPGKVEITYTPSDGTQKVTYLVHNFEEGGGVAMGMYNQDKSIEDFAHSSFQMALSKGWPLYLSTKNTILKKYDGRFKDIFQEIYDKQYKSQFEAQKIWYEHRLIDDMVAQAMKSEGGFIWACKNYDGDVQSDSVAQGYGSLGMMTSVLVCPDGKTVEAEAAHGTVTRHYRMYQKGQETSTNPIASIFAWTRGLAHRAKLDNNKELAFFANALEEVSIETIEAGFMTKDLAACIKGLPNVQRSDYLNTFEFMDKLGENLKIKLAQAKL

| SMILES | IC50 (IDH1 R132H) [nM] | IC50 (HT1080 cells) [nM] | IC50 (U87MG cells) [nM] |
| --- | --- | --- | --- |
| C=CS(=O)(=O)N(c1cccc(-c2c(C3CC3)nc(N3CCN(C(=O)C4CC4)[C@H](C4CC4)C3)c(C#N)c2C)c1)S(=O)(=O)C=C [Compound 463, (R)—N-(3-(5-cyano-6-(4-(cyclopropanecarbonyl)-3-cyclopropylpiperazin-1-yl)-2-cyclopropyl-4-methylpyridin-3-yl)phenyl)-N-(vinylsulfonyl)ethenesulfonamide] | < 500 | 1000 to 10000 | 1000 to 10000 |
| N#Cc1cc(-c2ccc3ncoc3c2)c(C2CC2)nc1N1CCN(C(=O)C2CC2)[C@H](C2CC2)C1 [Compound 466, (R)-5-(benzo[d]oxazol-6-yl)-2-(4-(cyclopropanecarbonyl)-3-cyclopropylpiperazin-1-yl)-6-cyclopropylnicotinonitrile] | < 500 | 1000 to 10000 | 500 to 1000 |
| C=CS(=O)(=O)Nc1cccc(-c2c(C3CC3)nc(N3CCN(C(=O)C4CC4)[C@H](C4CC4)C3)c(C#N)c2C)c1 [Compound 470, (R)—N-(3-(5-cyano-6-(4-(cyclopropanecarbonyl)-3-cyclopropylpiperazin-1-yl)-2-cyclopropyl-4-methylpyridin-3-yl)phenyl)ethenesulfonamide] | < 500 | 1000 to 10000 | 1000 to 10000 |
| COCCC(=O)N1CCN(c2nc(C3CC3)c(-c3ccc4oc(=O)[nH]c4c3)cc2C#N)C[C@H]1C [Compound 473, (R)-6-cyclopropyl-2-[4-(3-methoxy-propionyl)-3-methyl-piperazin-1-yl]-5-(2-oxo-2,3-dihydro-benzooxazol-5-yl)-nicotinonitrile] | < 500 | 1000 to 10000 | 500 to 1000 |
| C=Cc1ccc2c(-c3cc(C#N)c(N4CCN(C(=O)C5CC5)[C@H](C5CC5)C4)nc3C3CC3)cccc2n1 [Compound 475, (R)-2-(4-(cyclopropanecarbonyl)-3-cyclopropylpiperazin-1-yl)-6-cyclopropyl-5-(2-vinylquinolin-5-yl)nicotinonitrile] | < 500 | 500 to 1000 | < 500 |
| N#Cc1cc(-c2cccc3nc(O)ccc23)c(C2CC2)nc1N1CCN(C(=O)C2CC2)[C@H](C2CC2)C1 [Compound 476, (R)-2-(4-(cyclopropanecarbonyl)-3-cyclopropylpiperazin-1-yl)-6-cyclopropyl-5-(2-hydroxyquinolin-5-yl)nicotinonitrile] | < 500 | 500 to 1000 | < 500 |
| COC[C@@H]1C[C@@H]1C(=O)N1CCN(c2nc(C3CC3)c(-c3cccc4cnccc34)cc2C#N)C[C@H]1C1CC1 [Compound 480, 6-cyclopropyl-2-((R)-3-cyclopropyl-4-((1S,2R)-2-(methoxymethyl)cyclopropanecarbonyl)piperazin-1-yl)-5-(isoquinolin-5-yl)nicotinonitrile] | < 500 | < 500 | < 500 |
| CCOC1CC1C(=O)N1CCN(c2nc(C3CC3)c(-c3cccc4cnccc34)cc2C#N)C[C@H]1C1CC1 (stereo partly drawn) [Compound 481] | < 500 | < 500 | < 500 |
| N#Cc1cc(-c2cccc3ncoc23)c(C2CC2)nc1N1CCN(C(=O)C2CC2)[C@H](C2CC2)C1 [Compound 483, (R)-5-(benzo[d]oxazol-7-yl)-2-(4-(cyclopropanecarbonyl)-3-cyclopropylpiperazin-1-yl)-6-cyclopropylnicotinonitrile] | < 500 | 1000 to 10000 | 500 to 1000 |
| C=Cc1cc(-c2cc(C#N)c(N3CCN(C(=O)C4CC4)[C@H](C4CC4)C3)nc2C2CC2)ccn1 [Compound 485, (R)-6-(4-(cyclopropanecarbonyl)-3-cyclopropylpiperazin-1-yl)-2-cyclopropyl-2′-vinyl-3,4′-bipyridine-5-carbonitrile] | < 500 | < 500 | < 500 |
| N#Cc1cc(-c2cccc3cnccc23)c(C2CC2)nc1N1CCN(C(=O)c2ccoc2)[C@H](C2CC2)C1 [Compound 488, (R)-6-cyclopropyl-2-(3-cyclopropyl-4-(furan-3-carbonyl)piperazin-1-yl)-5-(isoquinolin-5-yl)nicotinonitrile] | < 500 | < 500 | 500 to 1000 |
| C=Cc1nccc(-c2cc(C#N)c(N3CCN(C(=O)C4CC4)[C@H](C4CC4)C3)nc2C2CC2)n1 [Compound 496, (R)-2-(4-(cyclopropanecarbonyl)-3-cyclopropylpiperazin-1-yl)-6-cyclopropyl-5-(2-vinylpyrimidin-4-yl)nicotinonitrile] | 500 to 1000 | 500 to 1000 | < 500 |
| C=Cc1cc(-c2cc(C#N)c(N3CCN(C(=O)CC(F)(F)F)[C@H](C4CC4)C3)nc2C2CC2)ccn1 [Compound 498, (R)-2-cyclopropyl-6-(3-cyclopropyl-4-(3,3,3-trifluoropropanoyl)piperazin-1-yl)-2′-vinyl-3,4′-bipyridine-5-carbonitrile] | < 500 | < 500 | < 500 |
| C=Cc1cccc(-c2cc(C#N)c(N3CCN(C(=O)C4CC4)[C@H](C4CC4)C3)nc2C2CC2)n1 [Compound 499, (R)-6′-(4-(cyclopropanecarbonyl)-3-cyclopropylpiperazin-1-yl)-2′-cyclopropyl-6-vinyl-2,3′-bipyridine-5′-carbonitrile] | 500 to 1000 | 1000 to 10000 | 1000 to 10000 |
| C=Cc1cc(-c2cc(C#N)c(N3CCN(C(=O)CCO)[C@H](C)C3)nc2C2CC2)ccn1 [Compound 500] | < 500 | < 500 | < 500 |
| N#Cc1cc(-c2ccnc(Br)c2)c(C2CC2)nc1N1CCN(C(=O)C2CC2)[C@H](C2CC2)C1 [Compound 508, (R)-2′-bromo-6-(4-(cyclopropanecarbonyl)-3-cyclopropylpiperazin-1-yl)-2-cyclopropyl-3,4′-bipyridine-5-carbonitrile] | < 500 | < 500 | < 500 |
| CCO[C@@H]1C[C@@H]1C(=O)N1CCN(c2nc(C3CC3)c(-c3cccc4cnccc34)cc2C#N)C[C@H]1C1CC1 [Compound 526, 6-cyclopropyl-2-((R)-3-cyclopropyl-4-((1S,2R)-2-ethoxycyclopropanecarbonyl)piperazin-1-yl)-5-(isoquinolin-5-yl)nicotinonitrile] | 500 to 1000 | < 500 | < 500 |
| C=Cc1cc(-c2cc(C#N)c(N3CCN(C(=O)CCO)[C@H](C4CC4)C3)nc2C2CC2)ccn1 [Compound 527] | < 500 | < 500 | < 500 |
| N#Cc1cc(Nc2ccnc3ccccc23)c(C2CC2)nc1N1CCN(C(=O)C2CC2)[C@H](C2CC2)C1 [Compound 528, (R)-2-(4-(cyclopropanecarbonyl)-3-cyclopropylpiperazin-1-yl)-6-cyclopropyl-5-(quinolin-4-ylamino)nicotinonitrile] | < 500 | 500 to 1000 | < 500 |
| C=Cc1cc(-c2cc(C#N)c(N3CCN(C(=O)CCOC)[C@H](C4CC4)C3)nc2C2CC2)ccn1 [Compound 530, (R)-2-cyclopropyl-6-(3-cyclopropyl-4-(3-methoxypropanoyl)piperazin-1-yl)-2′-vinyl-3,4′-bipyridine-5-carbonitrile] | < 500 | < 500 | < 500 |
| C=Cc1cc(-c2cc(C#N)c(N3CCN(C(=O)C4CC4)[C@H](C4CC4)C3)nc2C2CC2)ncn1 [Compound 541, (R)-2-(4-(cyclopropanecarbonyl)-3-cyclopropylpiperazin-1-yl)-6-cyclopropyl-5-(6-vinylpyrimidin-4-yl)nicotinonitrile] | < 500 | < 500 | < 500 |
| C=Cc1cc(-c2cc(C#N)c(N3CCN(C(=O)C4CC4)[C@H](C4CC4)C3)nc2C2CC2)c2ccccc2n1 [Compound 542, (R)-2-(4-(cyclopropanecarbonyl)-3-cyclopropylpiperazin-1-yl)-6-cyclopropyl-5-(2-vinylquinolin-4-yl)nicotinonitrile] | < 500 | < 500 | < 500 |
| C=Cc1cc(-c2cc(C#N)c(N3CCN(C(=O)c4ccoc4)[C@H](C4CC4)C3)nc2C2CC2)ccn1 [Compound 546, (R)-2-cyclopropyl-6-(3-cyclopropyl-4-(furan-3-carbonyl)piperazin-1-yl)-2′-vinyl-3,4′-bipyridine-5-carbonitrile] | < 500 | < 500 | < 500 |
| N#Cc1cc(-c2cccc3c(O)nccc23)c(C2CC2)nc1N1CCN(C(=O)CC(F)(F)F)[C@H](C2CC2)C1 [Compound 547, (R)-6-cyclopropyl-2-(3-cyclopropyl-4-(3,3,3-trifluoropropanoyl)piperazin-1-yl)-5-(1-hydroxyisoquinolin-5-yl)nicotinonitrile] | < 500 | < 500 | < 500 |
| C[C@@H]1CN(c2nc(C3CC3)c(-c3ccc(F)cc3)cc2C#N)CCN1C(=O)C1CC1 [Compound 550, (R)-2-(4-(cyclopropanecarbonyl)-3-methylpiperazin-1-yl)-6-cyclopropyl-5-(4-fluorophenyl)nicotinonitrile] | 500 to 1000 | < 500 | < 500 |
| C=Cc1ccc2c(-c3cc(C#N)c(N4CCN(C(=O)CC(F)(F)F)[C@H](C5CC5)C4)nc3C3CC3)cccc2n1 [Compound 551, (R)-6-cyclopropyl-2-(3-cyclopropyl-4-(3,3,3-trifluoropropanoyl)piperazin-1-yl)-5-(2-vinylquinolin-5-yl)nicotinonitrile] | < 500 | < 500 | < 500 |
